Values of other authors, collected in PMC3845493 (Molecular pharmaceutics, 2013).

PARVGLGITTVLTMTTQSSGSRA [Peptide M2GlyR]
Aggregation in aqueous solutions: tendency to aggregate in aqueous solutions
